Source: patent publication US8865897B2, “Crystal modifications-3-(1H-indol-3-yl)-4- [4-methyl-piperazin-1-yl)-quinazolin-4-yl] -pyrrole-2, 5-D ione” (Novartis AG, priority 2006, dated 2014)
Like-named read-outs stand apart in the source and are kept apart here.

SMILES: CC(=O)O.CN1CCN(c2nc(C3=C(c4c[nH]c5ccccc45)C(=O)NC3=O)c3ccccc3n2)CC1 [Form B, 3-(1.H.-indol-3-yl)-4-[2-(4-methyl-piperazin-1-yl)-quinazolin-4-yl]-pyrrole-2,5-dione acetate]
- Moisture Sorption at 25° (Relative humidity 45 %): 0.4
- Moisture Sorption at 25° (Relative humidity 55 %): 0.5
- Moisture Sorption at 25° (Relative humidity 75 %): 0.6
- Moisture Sorption at 25° (Relative humidity 85 %): 0.7
- Moisture Sorption at 25° (Relative humidity 95 %): 0.6
- XRPD pattern after DVS (after DVS moisture sorption at 25°): no change
- maximum water uptake (at 80% r.h.): 0.7%
